Reference: patent US9204653B2, “5-fluoro pyrimidine derivatives” (DOW AGROSCIENCES LLC, priority 2008, dated 2015)
Like-named read-outs stand apart in the source and are kept apart here.

Tested on: Mycosphaerella graminicola; Anamorph: Septoria tritici; Bayer Code SEPTTR
Assay: Leaf blotch of wheat, foliar fungicide treatment, one day protectant (1DP) or three day curative (3DC)
Type: in vivo, Septoria tritici on wheat plants (variety Yuma)
Settings: Zymoseptoria tritici
[1] = 24 h, one day protectant (1DP), 25 ppm (first 1DP column), percent control rating, read-out: SETTTR 1DP 25 ppm
[2] = 24 h, one day protectant (1DP), 25 ppm as printed (second 1DP column), percent control rating, read-out: SETTTR 1DP 25 ppm
[3] = 72 h, three day curative (3DC), 25 ppm, percent control rating, read-out: SEPTTR 3DC 25 ppm
[4] = 72 h, three day curative (3DC), percent control rating, read-out: SEPTTR 3DC 100 ppm
[5] = 24 h, one day protectant (1DP), 25 ppm, rating of percent disease control, read-out: SETTTR 1DP 25 ppm
[6] = 24 h, one day protectant (1DP), rating of percent disease control, read-out: SEPTTR 1DP 100 ppm
[7] = 72 h, three day curative (3DC), 25 ppm, rating of percent disease control, read-out: SEPTTR 3DC 25 ppm
[8] = 72 h, three day curative (3DC), rating of percent disease control, read-out: SEPTTR 3DC 100 ppm
[9] = 24 h, one day protectant, 25 ppm, rating of percent disease control, read-out: SETTTR 1DP 25 ppm
[10] = 24 h, one day protectant, rating of percent disease control, read-out: SEPTTR 1DP 100 ppm
[11] = 72 h, three day curative, 25 ppm, rating of percent disease control, read-out: SEPTTR 3DC 25 ppm
[12] = 72 h, three day curative, rating of percent disease control, read-out: SEPTTR 3DC 100 ppm
[13] = 24 h, one day protectant (1DP), 25 ppm, percent disease control rating, read-out: SETTTR 1DP 25 ppm
[14] = 24 h, one day protectant (1DP), percent disease control rating, read-out: SEPTTR 1DP 100 ppm
[15] = 72 h, three day curative (3DC), 25 ppm, percent disease control rating, read-out: SEPTTR 3DC 25 ppm
[16] = 72 h, three day curative (3DC), percent disease control rating, read-out: SEPTTR 3DC 100 ppm

CCc1ccccc1NNc1nc(OCc2ccc(C)cc2)ncc1F [Compound 995]
pest or weed control at 25 ppm [1]: 0 to 25%
pest or weed control at 25 ppm [2]: 26 to 50%
pest or weed control at 25 ppm [3]: 0 to 25%
pest or weed control at 100 ppm [4]: 0 to 25%

C/C(=N\Oc1ncc(F)c(N)n1)c1ccc(S(=O)(=O)N(C)C)cc1 [Compound 1002]
pest or weed control at 25 ppm [1]: 51 to 75%
pest or weed control at 25 ppm [2]: 76 to 100%
pest or weed control at 25 ppm [3]: 26 to 50%
pest or weed control at 100 ppm [4]: 51 to 75%

COc1ccc(COc2ncc(F)c(N)n2)cc1C(F)(F)F [Compound 476]
pest or weed control at 25 ppm [5]: 76 to 100%
pest or weed control at 100 ppm [6]: 76 to 100%
pest or weed control at 25 ppm [7]: 76 to 100%
pest or weed control at 100 ppm [8]: 76 to 100%

COc1ccccc1COc1ncc(F)c(NC(=O)c2ccccc2)n1 [Compound 676]
pest or weed control at 25 ppm [9]: 26 to 50%
pest or weed control at 100 ppm [10]: 76 to 100%
pest or weed control at 25 ppm [11]: 0 to 25%
pest or weed control at 100 ppm [12]: 0 to 25%

Cc1ccc(S(=O)(=O)Oc2ncc(F)c(N)n2)cc1 [Compound 671]
pest or weed control at 25 ppm [9]: 76 to 100%
pest or weed control at 100 ppm [10]: 76 to 100%
pest or weed control at 25 ppm [11]: 76 to 100%
pest or weed control at 100 ppm [12]: 76 to 100%

C[C@@H](Oc1ncc(F)c(N)n1)c1ccc(Br)cc1 [Compound 70]
pest or weed control at 25 ppm [13]: 26 to 50%
pest or weed control at 100 ppm [14]: 76 to 100%
pest or weed control at 25 ppm [15]: 26 to 50%
pest or weed control at 100 ppm [16]: 76 to 100%

C=CCOc1ncc(F)c(N(O)Cc2ccccc2)n1 [Compound 1088]
pest or weed control at 25 ppm [1]: 0 to 25%
pest or weed control at 25 ppm [2]: 26 to 50%
pest or weed control at 25 ppm [3]: 0 to 25%
pest or weed control at 100 ppm [4]: 0 to 25%

CC(Oc1ncc(F)c(N)n1)c1cc(Cl)c(Cl)cc1Cl (stereo not drawn) [Compound 502]
pest or weed control at 25 ppm [5]: 0 to 25%
pest or weed control at 100 ppm [6]: 0 to 25%
pest or weed control at 25 ppm [7]: 0 to 25%
pest or weed control at 100 ppm [8]: 0 to 25%

Nc1nc(O/N=C2\CCc3ccccc32)ncc1F [Compound 181]
pest or weed control at 25 ppm [13]: 76 to 100%
pest or weed control at 100 ppm [14]: 76 to 100%
pest or weed control at 25 ppm [15]: 76 to 100%
pest or weed control at 100 ppm [16]: 76 to 100%

Cc1ccc(NC(=O)Nc2nc(O)ncc2F)cc1 [Compound 968]
pest or weed control at 25 ppm [1]: 51 to 75%
pest or weed control at 25 ppm [2]: 51 to 75%
pest or weed control at 25 ppm [3]: 51 to 75%
pest or weed control at 100 ppm [4]: 51 to 75%

CC#CCOc1ncc(F)c(NCO)n1 [Compound 559]
pest or weed control at 25 ppm [9]: 51 to 75%
pest or weed control at 100 ppm [10]: 76 to 100%
pest or weed control at 25 ppm [11]: 76 to 100%
pest or weed control at 100 ppm [12]: 76 to 100%

Cc1ccc(COc2ncc(F)c(N)n2)cc1F [Compound 232]
pest or weed control at 25 ppm [5]: 76 to 100%
pest or weed control at 100 ppm [6]: 76 to 100%
pest or weed control at 25 ppm [7]: 76 to 100%
pest or weed control at 100 ppm [8]: 76 to 100%

Cc1ccc(C)c(NNc2nc(OCc3ccccc3)ncc2F)c1 [Compound 1036]
pest or weed control at 25 ppm [1]: 0 to 25%
pest or weed control at 25 ppm [2]: 0 to 25%
pest or weed control at 25 ppm [3]: 0 to 25%
pest or weed control at 100 ppm [4]: 0 to 25%

Cc1cccc(COc2ncc(F)c(N)n2)c1 [Compound 188]
pest or weed control at 25 ppm [5]: 76 to 100%
pest or weed control at 100 ppm [6]: 76 to 100%
pest or weed control at 25 ppm [7]: 76 to 100%
pest or weed control at 100 ppm [8]: 76 to 100%

CCOCNc1nc(OCc2ccc(C)cc2)ncc1F [Compound 675]
pest or weed control at 25 ppm [9]: 76 to 100%
pest or weed control at 100 ppm [10]: 76 to 100%
pest or weed control at 25 ppm [11]: 76 to 100%
pest or weed control at 100 ppm [12]: 76 to 100%

Oc1ncc(F)c(N/N=C/c2ccccc2Cl)n1 [Compound 1118]
pest or weed control at 25 ppm [1]: 0 to 25%
pest or weed control at 25 ppm [2]: 0 to 25%
pest or weed control at 25 ppm [3]: 0 to 25%
pest or weed control at 100 ppm [4]: 0 to 25%

Fc1cccc(COc2ncc(F)c(/N=C/N3CCOCC3)n2)c1 [Compound 684]
pest or weed control at 25 ppm [9]: 76 to 100%
pest or weed control at 100 ppm [10]: 76 to 100%
pest or weed control at 25 ppm [11]: 76 to 100%
pest or weed control at 100 ppm [12]: 76 to 100%

CCCNC(=S)Nc1nc(OCc2ccc(F)cc2)ncc1F [Compound 37]
pest or weed control at 25 ppm [13]: 76 to 100%
pest or weed control at 100 ppm [14]: 76 to 100%
pest or weed control at 25 ppm [15]: 76 to 100%
pest or weed control at 100 ppm [16]: 76 to 100%

CCCCN(C)/C=N/c1nc(OCc2ccc(F)cc2)ncc1F [Compound 518]
pest or weed control at 25 ppm [5]: 76 to 100%
pest or weed control at 100 ppm [6]: 76 to 100%
pest or weed control at 25 ppm [7]: 76 to 100%
pest or weed control at 100 ppm [8]: 76 to 100%

Fc1cccc(COc2ncc(F)c(NCOCc3ccccc3)n2)c1 [Compound 458]
pest or weed control at 25 ppm [5]: 0 to 25%
pest or weed control at 100 ppm [6]: 51 to 75%
pest or weed control at 25 ppm [7]: 0 to 25%
pest or weed control at 100 ppm [8]: 0 to 25%

COc1ccc(COc2ncc(F)c(N)n2)cc1F [Compound 590]
pest or weed control at 25 ppm [9]: 76 to 100%
pest or weed control at 100 ppm [10]: 76 to 100%
pest or weed control at 25 ppm [11]: 76 to 100%
pest or weed control at 100 ppm [12]: 76 to 100%
